Patent US10596145B2, “Heterocyclic flavone derivatives, compositions, and methods related thereto” (Emory University, priority 2012, dated 2020)
“Also recorded” adds a separate entry of the source.

Columns and labels:
[1] = tested on: Akt; experiment: Downstream Akt activation in mouse brain (p-Akt immunoblotting, p-Akt 473 ELISA); type: in vivo; details: 1 mg/kg oral
Procedure: PathScan Phospho-Akt1 (Ser473) Sandwich ELISA kit was purchased from Cell Signaling (Cat. #7160). 100 μl sample in sample diluent (supplied in the kit) was added to each well and incubated overnight at 4° C. After 4× wash with 200 ul wash buffer (supplied in the kit), 100 ul/well detection antibody was added and incubated for 1 hour at 37° C. After 4× wash, 100 μl of HRP-linked secondary antibody (supplied in the kit) was added and incubated for 30 minutes at 37° C. After a final wash, 100 μl of TMB substrate was added to each well and incubated for 10 minutes at 37° C. The reaction was stopped by adding 100 μl/well stop solution. Record the values of each well using microplate reader at 450 nm and 650 nm. The optical density was determined by the subtraction of the reading at 650 nm from the reading s at 450 nm.
(§1) Male C57BL/6 mice aged of two months were administrated orally with 4′-DMA-7,8-DHF derivatives at a single dose of 1 mg/kg for 4 h. The control mice were injected with saline. The mice were sacrificed and brains were homogenated and ultracentrafuged. The supernatant (40 μg) was employed for SDS-PAGE and immunoblotting analysis with indicated antibodies, respectively. Male C57BL/6 mice aged of two months were administrated orally with compound (i) or (m) at the dose of 5 mg/kg/day each and compound o or p at the dose of 2.5 mg/kg/day each for 21 days. BrdU (100 mg/kg) was i. p. injected two hours before the TrkB agonist treated animals were sacrificed and the hippocampal section lysates were analyzed by immunoblotting with p-TrkB and total TrkB antibodies, p-AKT ELISA.

[2] = biological target: T1, TrkB (Rattus norvegicus, UniProt Q63604); experiment: TrkB activation in primary cortical neurons (immunoblotting); type: cell-based; details: 500 nM, 15 min
T1 construct: endogenous in cells; host or cells: primary cortical neurons from E17 rat embryos
Procedure: Primary cortical cultures from E17 rat embryos were treated with 500 nM of various synthetic flavone derivatives for 15 min. The cell lysates (20 μg) were analyzed by the immunoblotting.
Rat primary neurons were treated with 500 nM various indicated compounds from 15 min. The neuronal lysates ([…]) were analyzed with various antibodies.
500 nM of different synthetic compounds were added to DIV 7 neurons for 15 min. The cell lysates were analyzed by immunoblotting with indicated p-Akt 473 antibodies.
Replacing the 3′-dimethylamino group or 4′-morpholino group was tested for TrkB agonistic activity. To compare the TrkB activation by these compounds, primary cortical cultures were prepared and treated them with 500 nM of various compounds for 15 min and collected the cell lysates. […] The p-Akt ELISA analysis results were similar to the TrkB activation pattern (FIG. 2B, lower panel).

[3] = tested on: C57BL/6J mice; experiment: Locomotor activity assay; type: in vivo, mouse; details: 5 mg/kg oral, 21 days, tested at day 22
Procedure: The above drug-treated mice were subjected locomotor activity at day 22. […] Data are presented as mean±SEM.
Locomotor activity was assessed using an automated system (San Diego Instruments, La Jolla, Calif., USA) with photobeams that recorded ambulations (consecutive beam breaks). Drug-treated mice were placed in the locomotor chambers, and their activity was recorded for 2 h with 30 min interval.

[4] = biological target: T2, TrkB (Mus musculus, UniProt P15209); experiment: TrkB phosphorylation in mouse brain after oral administration (immunoblotting, immunohistochemistry); type: in vivo
T2 construct: from tissue; host or cells: mouse brain (hippocampus, cortex), C57BL/6
Procedure: One mg/kg of various indicated compounds were orally administrated into C57 BL/6J mice and TrkB phosphorylation and its downstream signaling cascades including Akt and MAPK in the hippocampus of mouse brain were analyzed by immunoblotting at 4 h. […] The downstream p-Akt and p-MAPK activity coupled to the TrkB activation patterns.
Time course assay with 4′-dimethylamino-7,8-imidazole flavone. One mg/kg of compound (i) and compound (m) were orally administrated into C57 BL/6J mice and TrkB phosphorylation and its downstream signaling cascades including Akt in mouse brain were analyzed by immunoblotting at various time points. TrkB activation by compound m peaked at 4 h, whereas the maximal TrkB activation by compound i in mouse brain occurred at 1-2 h. Arrows indicate the p-TrkB in mature glycosylated or unglycosylated forms (top panels). The downstream Akt activation pattern tightly correlated with the upstream TrkB activation.
as §1
Brain tissues were fixed in 4% paraformaldehyde overnight followed by paraffin embedding. Sections of 6 μm were cut. For immunohistochemical staining, brain sections were deparaffinized in xylene and rehydrated in graded alcohols. Endogenous peroxidase activity was blocked by 3% hydrogen peroxide for 5 min and all slides were boiled in 10 mM sodium citrate buffer (pH 6.0) for 10 min. Phosphorylated TrkB 816 and TrkB were detected using specific antibodies. Paraffin section were deparaffinized in xylene and rehydrated gradient ethanol solution. Samples were boiled in 10 mM sodium citrate buffer for 20 min for antigen retrieval purpose. Brain sections were incubated with anti-TrkB (BD Biosciences, San Jose, Calif.) 1:50, p-TrkB 1:300 dilution. Secondary antibody was applied using anti-rabbit-Alexa 594 (red), anti-mouse-fluorescein isothiocyanate (FITC) (green). DAPI (blue) was used for nuclear staining.

[5] = tested on: C57BL/6J mice; experiment: Forced swim test; type: in vivo, mouse; details: 5 mg/kg oral once a day, 3 weeks
Procedure: Male C57BL/6J mice (6 mice/group) were orally administrated by gavage with 5 mg/kg compound (m) or compound (i) and vehicle solvent saline for 21 days and subjected to a forced swim test (6 min, immobility recorded in the last 4 min). Data are presented as mean±SEM. (n=6, ***P<0.0001 vs vehicle, Student t-test).
Forced swim test. Male C57BL/6J mice (8 mice/group) were orally administrated by gavage with 2.5 mg/kg compound o or compound p and vehicle solvent saline for 21 days and subjected to a forced swim test (6 min, immobility recorded in the last 4 min). […] Data are presented as mean±SEM.
Adult male mice (2-3 months old) were randomly submitted to a forced swim test without a preswim. Test compounds were orally administrated by gavage for 21 days. The mice were allowed to adapt to the test room for 2 days. The mice were placed in a clear glass cylinder with a diameter of 16 cm, half-filled with clear water at 24° C.

[6] = biological target: T3, TrkA (Mus musculus, UniProt Q3UFB7); experiment: TrkA activation in mouse brain (anti-p-TrkA 794 immunoblotting); type: in vivo; details: 5 mg/kg/day oral, chronically treated mice
T3 construct: from tissue; host or cells: mouse brain lysates of chronically treated C57BL/6J mice
Procedure: The brain lysates from above chronically treated mice were analyzed by immunoblotting with anti-p-TrkA 794 and p-TrkB 816.
as §1

T2 sequence (P15209 32-821): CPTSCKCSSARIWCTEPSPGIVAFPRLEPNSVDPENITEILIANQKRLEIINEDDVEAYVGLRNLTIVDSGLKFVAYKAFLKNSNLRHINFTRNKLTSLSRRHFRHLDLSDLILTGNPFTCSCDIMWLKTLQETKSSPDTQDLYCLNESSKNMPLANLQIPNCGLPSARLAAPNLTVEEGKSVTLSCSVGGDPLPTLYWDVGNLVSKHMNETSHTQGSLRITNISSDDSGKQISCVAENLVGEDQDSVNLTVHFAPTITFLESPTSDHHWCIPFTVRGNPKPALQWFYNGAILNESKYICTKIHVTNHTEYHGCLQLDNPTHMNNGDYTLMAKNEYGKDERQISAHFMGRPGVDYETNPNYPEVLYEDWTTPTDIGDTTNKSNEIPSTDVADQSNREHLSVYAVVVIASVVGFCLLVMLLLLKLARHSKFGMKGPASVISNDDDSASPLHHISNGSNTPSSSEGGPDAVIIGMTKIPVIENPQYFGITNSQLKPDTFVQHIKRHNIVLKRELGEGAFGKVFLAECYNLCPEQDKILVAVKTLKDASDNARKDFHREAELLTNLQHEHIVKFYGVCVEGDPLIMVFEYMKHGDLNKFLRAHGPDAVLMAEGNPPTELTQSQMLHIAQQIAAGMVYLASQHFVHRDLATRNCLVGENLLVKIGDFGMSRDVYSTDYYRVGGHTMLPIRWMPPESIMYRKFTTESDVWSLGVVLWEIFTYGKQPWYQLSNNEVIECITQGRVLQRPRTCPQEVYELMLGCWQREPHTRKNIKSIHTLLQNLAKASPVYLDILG
T1 sequence (Q63604 32-821): as the sequence (P15209 32-821) above, with T3M, S9T, A10T, V32I, R63K, S84G, M153T, L185I, S394T, S770N counted along it
T3 sequence (Q3UFB7 34-799): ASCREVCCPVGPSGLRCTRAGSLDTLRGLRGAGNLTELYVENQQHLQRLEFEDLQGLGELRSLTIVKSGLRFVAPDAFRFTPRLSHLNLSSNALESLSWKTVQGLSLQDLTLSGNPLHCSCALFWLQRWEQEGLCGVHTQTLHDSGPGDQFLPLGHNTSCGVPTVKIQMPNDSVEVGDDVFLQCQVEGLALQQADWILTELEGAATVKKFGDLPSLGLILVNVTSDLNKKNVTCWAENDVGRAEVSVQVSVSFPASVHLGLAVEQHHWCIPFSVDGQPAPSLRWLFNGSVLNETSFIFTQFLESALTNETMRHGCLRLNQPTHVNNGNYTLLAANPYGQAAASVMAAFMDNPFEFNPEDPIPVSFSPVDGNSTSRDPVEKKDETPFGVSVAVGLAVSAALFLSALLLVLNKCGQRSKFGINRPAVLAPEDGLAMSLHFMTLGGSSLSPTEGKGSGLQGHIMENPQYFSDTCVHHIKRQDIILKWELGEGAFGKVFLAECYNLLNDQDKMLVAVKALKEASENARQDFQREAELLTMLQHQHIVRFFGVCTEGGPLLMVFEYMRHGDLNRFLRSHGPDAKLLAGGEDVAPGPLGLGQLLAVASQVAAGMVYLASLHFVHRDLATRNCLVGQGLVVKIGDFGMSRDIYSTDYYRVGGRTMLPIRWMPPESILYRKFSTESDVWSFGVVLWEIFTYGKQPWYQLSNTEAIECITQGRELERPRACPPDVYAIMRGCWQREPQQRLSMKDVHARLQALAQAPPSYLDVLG

- time at which TrkB activation fades away ([4]; 1 mg/kg oral, time course): 16 h
- time of peak TrkB activation in mouse brain ([4]; 1 mg/kg oral, time course): 4 h
- TrkA activation in mouse brain [6]: not TrkA
SMILES: CN(C)c1ccc(-c2cc(=O)c3ccc4nc[nH]c4c3o2)cc1 [compound m, 8-(4-(dimethylamino)phenyl)chromeno[7,8-d]imidazol-6(1H)-one]
- downstream p-Akt and p-MAPK signalings ([1]; at 4 h): strongly activated
- p-Akt signal elevation compared to the control at peak ([1]; at 8 h): about 250%
- time of peak p-Akt activation (p-Akt ELISA) ([1]; time course): 8 h
- TrkB activation (p-TrkB immunoblotting) [2]: stronger effect in triggering TrkB activation than compound 4′-DMA-7,8-DHF
- TrkB activation (p-TrkB immunoblotting) ([2]; listed as 4′-Dimethylamino-7,8-imidazole flavone): stronger TrkB stimulatory activity than compound a
- locomotor activity [3]: highly augmented the locomotor activity; also recorded: substantially augmented locomoter activity; also recorded: significantly increased the locomotor activity
- TrkB activation in mouse brain ([4]; 1 mg/kg oral, hippocampus, at 4 h): robustly activated TrkB; also recorded: strongest TrkB stimulatory effect
- TrkB phosphorylation after chronic treatment ([4]; 5 mg/kg/day oral, 3 weeks, cortex and hippocampus): escalated TrkB phosphorylation; also recorded: stronger effect than compound i
- immobility in forced swim test [5]: decreased the immobility in FST; also recorded: significantly reduced the immobility; also recorded: more robust than that of compound i
